Data as given in patent US20210147381A1, “1,2,3,4-SUBSTITUTED QUINOLINE COMPOUNDS AS SIP MODULATORS” (AbbVie Deutschland GmbH & Co. KG, priority 2017, published 2021).

Legend:
Assay type in all cases: cell-based
[1] = biological target: T1, human S1P1 receptor (S1PR1) (Homo sapiens, UniProt P21453); assay: Intracellular Ca2+ release (method 1), agonist potency, S1P1; conditions: CHO-K1 cells expressing human S1PR1; cells given as bound
T1 construct: host or cells: CHO-K1
Method: (§1) Agonistic activity and efficacy of compounds was assessed in recombinant cells using method 1 described below.
(§2) Agonist potency and efficacy were assessed by measurement of intracellular Ca^2+ release. Recombinant CHO-K1 cells (Euroscreen, Brussels, Belgium) expressing human S1PR5, S1PR1, S1PR3 or S1PR4 receptors, aequorin, and GTP binding protein Gq/i5 were cultured using a medium containing nutrient mixture F-12 Ham (Sigma-Aldrich) with 10% FBS, and 100 μg/mL gentamicin and equilibrated at 5% CO2.
(§3) 15,000 cells in 20 μL medium were seeded into Biocoat poly-D-Lysine coated 384 well plates (Becton Dickinson #35-6663) and grown to 95% confluency after 24 h.
(§4) Culture medium was replaced by an assay buffer consisting of HBBS with Ca^2+ and Mg^2+ (Invitrogen #14025-050), 20 mmol/L Hepes (Sigma-Aldrich #H-3375), 2.5 mmol/L probenecid (Sigma-Aldrich #P-8761, and 0.1% BSA (Sigma-Aldrich #A-7030) pH 7.4. The Calcium 5 no-wash FLIPR assay kit (Molecular Devices #5000625) was performed as described in the kit instructions. Cells were incubated with Calcium 5 dye for 1 h at 37° C., 5% CO2 in the dark. After 45 min adaptation to RT assessment of agonist stimulation of intracellular Ca^2+ release was performed by addition of test compounds at various concentrations obtained by serial dilution. Phospho-fingolimod was used as positive control and reference agonist (intrinsic activity 100%).
(§5) Agonism of test compounds at the human S1Px receptors were characterized by the EC50 values (potencies) deduced from a nonlinear 4 parametric logistic curve fit to the measured fluorescence data after normalization to the lower and upper plateaus of the fitted reference agonist's (phospho-fingolimod)effect curve and by their efficacy (Emax) values represented by their maximum achievable effects in % of the reference agonist's efficacy, which is defined as an Emax of 100%.

[2] = biological target: T2, human S1P5 receptor (S1PR5) (Homo sapiens, UniProt Q9H228); assay: Intracellular Ca2+ release (method 1), agonist potency and efficacy, S1P5; conditions: for Emax: read-out: hS1P5 EMax; for EC50: recombinant CHO-K1 cells expressing human S1PR5, aequorin, Gq/i5, Ca2+ release, read-out: S1P5 EC50 range
T2 construct: host or cells: CHO-K1
Method: as §1, §2, §3, §4, §5

[3] = biological target: T3, human S1P4 receptor (S1PR4) (Homo sapiens, UniProt O95977); assay: Intracellular Ca2+ release (method 1), agonist potency, S1P4; conditions: CHO-K1 cells expressing human S1PR4
T3 construct: host or cells: CHO-K1
T3 sequence (O95977 1-384): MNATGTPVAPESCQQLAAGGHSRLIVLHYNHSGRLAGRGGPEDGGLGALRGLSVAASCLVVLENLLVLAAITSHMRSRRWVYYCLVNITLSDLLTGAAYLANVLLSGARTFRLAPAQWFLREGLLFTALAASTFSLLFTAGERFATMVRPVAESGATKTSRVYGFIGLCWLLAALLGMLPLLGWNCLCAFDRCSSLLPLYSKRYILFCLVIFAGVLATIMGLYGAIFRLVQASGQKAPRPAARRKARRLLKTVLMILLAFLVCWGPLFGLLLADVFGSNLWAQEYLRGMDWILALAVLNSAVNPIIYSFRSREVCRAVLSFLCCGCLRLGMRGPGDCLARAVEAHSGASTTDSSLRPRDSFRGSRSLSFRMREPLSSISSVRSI
Method: as §1, §2, §3, §4, §5

[4] = maximum effect in % of reference agonist phospho-fingolimod (100%)

T2 sequence (Q9H228 whole entry): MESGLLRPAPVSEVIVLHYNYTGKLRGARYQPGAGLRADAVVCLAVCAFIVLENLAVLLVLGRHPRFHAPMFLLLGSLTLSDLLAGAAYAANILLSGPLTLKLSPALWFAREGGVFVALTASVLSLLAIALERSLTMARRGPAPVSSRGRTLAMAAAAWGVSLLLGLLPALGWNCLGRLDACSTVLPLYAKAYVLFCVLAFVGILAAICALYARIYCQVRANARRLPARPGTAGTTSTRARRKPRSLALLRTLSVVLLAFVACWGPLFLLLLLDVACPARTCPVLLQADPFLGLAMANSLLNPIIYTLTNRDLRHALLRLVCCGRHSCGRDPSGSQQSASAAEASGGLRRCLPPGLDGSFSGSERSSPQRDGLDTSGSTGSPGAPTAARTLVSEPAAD
T1 sequence (P21453 whole entry): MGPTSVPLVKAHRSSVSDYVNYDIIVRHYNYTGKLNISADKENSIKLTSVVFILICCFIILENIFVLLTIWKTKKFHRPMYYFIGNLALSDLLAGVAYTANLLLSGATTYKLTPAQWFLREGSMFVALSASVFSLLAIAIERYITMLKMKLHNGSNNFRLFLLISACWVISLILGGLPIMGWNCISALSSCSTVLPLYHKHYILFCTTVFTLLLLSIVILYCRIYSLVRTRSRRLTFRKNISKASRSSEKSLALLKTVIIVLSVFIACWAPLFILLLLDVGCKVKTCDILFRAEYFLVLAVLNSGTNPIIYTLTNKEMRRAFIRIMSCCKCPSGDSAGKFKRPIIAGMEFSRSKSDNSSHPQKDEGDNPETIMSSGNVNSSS

| EC50 [1] | Emax [2, 4] | EC50 [2] | EC50 ([3]; cells given as bound) | EC50 [3] | Structure (SMILES) | hS1P5 EMax [2, 4] |
| --- | --- | --- | --- | --- | --- | --- |
| > 1000 nM | > 100% | < 10 nM | > 1000 nM | – | CC(CC(=O)O)CN1Cc2ccc(C#Cc3ccc(OC(C)C)cc3)cc2C2(CC2)C1 (stereo not shown) [Compound 62, 4-(6′-((4-isopropoxyphenyl)ethynyl)-1′H-spiro[cyclopropane-1,4′-isoquinolin]-2′(3′H)-yl)-3-methylbutanoic acid] | – |
| > 1000 nM | 50 to 100% | 100 to 1000 nM | > 1000 nM | – | CC(C)Oc1ccc(C#Cc2ccc3c(c2)C2(CC2)CN(CC2(C(=O)O)CC2)C3)cc1 [Compound 8, 1-((6′-((4-isopropoxyphenyl)ethynyl)-1′H-spiro[cyclopropane-1,4′-isoquinolin]-2′(3′H)-yl)methyl)cyclopropanecarboxylic acid] | – |
| > 1000 nM | > 100% | 100 to 1000 nM | > 1000 nM | – | CC(CC(=O)O)CN1Cc2ccc(C#Cc3ccc(OC(F)(F)F)cc3)cc2C2(CC2)C1 (stereo not shown) [Compound 65, 3-methyl-4-(6′-((4-(trifluoromethoxy)phenyl)ethynyl)-1′H-spiro[cyclopropane-1,4′-isoquinolin]-2′(3′H)-yl)butanoic acid] | – |
| > 1000 nM | > 100% | 100 to 1000 nM | > 1000 nM | – | O=C(O)C1(CN2Cc3ccc(C#Cc4ccc(OC5CCCC5)nc4)cc3C3(CC3)C2)CC1 [Compound 9, 1-((6′-((6-(cyclopentyloxy)pyridin-3-yl)ethynyl)-1′H-spiro[cyclopropane-1,4′-isoquinolin]-2′(3′H)-yl)methyl)cyclopropanecarboxylic acid] | – |
| > 1000 nM | 50 to 100% | 100 to 1000 nM | > 1000 nM | – | CCOc1ccc(C#Cc2ccc3c(c2)C2(CC2)CN(CC(=O)O)C3)cc1 [Compound 5, 2′-(carboxymethyl)-6′-((4-ethoxyphenyl)ethynyl)-2′,3′-dihydro-1′H-spiro[cyclopropane-1,4′-isoquinolin]-2′-ium 2,2,2-trifluoroacetate] | – |
| > 1000 nM | 50 to 100% | 1000 to 10000 nM | > 1000 nM | – | COc1ccc(C#Cc2ccc3c(c2)C2(CC2)CN(CCCC(=O)O)C3)c(C)n1 [Compound 57, 4-(6′-((6-methoxy-2-methylpyridin-3-yl)ethynyl)-1′H-spiro[cyclopropane-1,4′-isoquinolin]-2′(3′H)-yl)butanoic acid] | – |
| > 1000 nM | 50 to 100% | 10 to 100 nM | > 1000 nM | – | CCOc1cc(C)c(C#Cc2ccc3c(c2)C2(CC2)CN(CCCC(=O)O)C3)cn1 [Compound 49, 4-(6′-((6-ethoxy-4-methylpyridin-3-yl)ethynyl)-1′H-spiro[cyclopropane-1,4′-isoquinolin]-2′(3′H)-yl)butanoic acid] | – |
| > 1000 nM | 50 to 100% | 10 to 100 nM | > 1000 nM | – | CC(CC(=O)O)CN1Cc2ccc(C#Cc3ccsc3)cc2C2(CC2)C1 (stereo not shown) [Compound 68, 3-methyl-4-(6′-(thiophen-3-ylethynyl)-1′H-spiro[cyclopropane-1,4′-isoquinolin]-2′(3′H)-yl)butanoic acid] | – |
| > 1000 nM | > 100% | 100 to 1000 nM | > 1000 nM | – | CC(C)c1ccc(C#Cc2ccc3c(c2)C2(CC2)CN(CC(=O)O)C3)cc1 [Compound 6, 2′-(carboxymethyl)-6′-((4-isopropylphenyl)ethynyl)-2′,3′-dihydro-1′H-spiro[cyclopropane-1,4′-isoquinolin]-2′-ium 2,2,2-trifluoroacetate] | – |
| – | – | – | – | 100 to 1000 nM | CC(=O)O.O=C(O)CCN1Cc2ccc(C#Cc3c(Cl)cccc3Cl)cc2C2(CC2)C1 [Compound 30, 3-(6′-((2,6-dichlorophenyl)ethynyl)-1′H-spiro[cyclopropane-1,4′-isoquinolin]-2′(3′H)-yl)propanoic acid acetic acid salt (1:1)] | ++ (EMax = 50-100, determined with method 1) |
| > 1000 nM | 50 to 100% | 10 to 100 nM | > 1000 nM | – | CCOc1cc(C)c(C#Cc2ccc3c(c2)C2(CC2)CN(CC(C)CC(=O)O)C3)cn1 (stereo not shown) [Compound 67, 4-(6′-((6-ethoxy-4-methylpyridin-3-yl)ethynyl)-1′H-spiro[cyclopropane-1,4′-isoquinolin]-2′(3′H)-yl)-3-methylbutanoic acid] | – |
| > 1000 nM | 50 to 100% | 10 to 100 nM | > 1000 nM | – | CCOc1ccc(C#Cc2ccc3c(c2)C2(CC2)CN(C2CC(C(=O)O)C2)C3)cc1F (stereo not shown) [Compound 72, 3-(6′-((4-ethoxy-3-fluorophenyl)ethynyl)-1′H-spiro[cyclopropane-1,4′-isoquinolin]-2′(3′H)-yl)cyclobutanecarboxylic acid] | – |

The remaining lines, values behind:

| Structure (SMILES) | EC50 [1] | Emax [2, 4] | EC50 [2] | EC50 ([3]; cells given as bound) | EC50 [3] | hS1P5 EMax [2, 4] |
| --- | --- | --- | --- | --- | --- | --- |
| COc1ncc(C#Cc2ccc3c(c2)C2(CC2)CN(CCCC(=O)O)C3)cc1F [Compound 55, 4-(6′-((5-fluoro-6-methoxypyridin-3-yl)ethynyl)-1′H-spiro[cyclopropane-1,4′-isoquinolin]-2′(3′H)-yl)butanoic acid] | > 1000 nM | < 50% | 1000 to 10000 nM | > 1000 nM | – | – |
| CC(CC(=O)O)CN1Cc2ccc(C#Cc3ccc(OC(C)C)nc3)cc2C2(CC2)C1 (stereo not shown) [Compound 59, 4-(6′-((6-isopropoxypyridin-3-yl)ethynyl)-1′H-spiro[cyclopropane-1,4′-isoquinolin]-2′(3′H)-yl)-3-methylbutanoic acid] | > 1000 nM | 50 to 100% | < 10 nM | > 1000 nM | – | – |
| CCOc1ccc(C#Cc2ccc3c(c2)C2(CC2)CN(CC(C)CC(=O)O)C3)cc1F (stereo not shown) [Compound 69, 4-(6′-((4-ethoxy-3-fluorophenyl)ethynyl)-1′H-spiro[cyclopropane-1,4′-isoquinolin]-2′(3′H)-yl)-3-methylbutanoic acid] | > 1000 nM | > 100% | 10 to 100 nM | > 1000 nM | – | – |
| O=C(O)CCCN1Cc2ccc(C#Cc3ccc(=O)n(CC4CC4)c3)cc2C2(CC2)C1 [Compound 4, 4-(6′-((1-(cyclopropylmethyl)-6-oxo-1,6-dihydropyridin-3-yl)ethynyl)-1′H-spiro[cyclopropane-1,4′-isoquinolin]-2′(3′H)-yl)butanoic acid] | > 1000 nM | 50 to 100% | 1000 to 10000 nM | > 1000 nM | – | – |
| CC(C)Oc1ccc(C#Cc2ccc3c(c2)C2(CC2)CN(CCCC(=O)O)C3)nc1 [Compound 52, 4-(6′-((5-isopropoxypyridin-2-yl)ethynyl)-1′H-spiro[cyclopropane-1,4′-isoquinolin]-2′(3′H)-yl)butanoic acid] | > 1000 nM | > 100% | 100 to 1000 nM | > 1000 nM | – | – |
| CCOc1ccc(C#Cc2ccc3c(c2)C2(CC2)CN(C2CC(C(=O)O)C2)C3)nc1 (stereo not shown) [Compound 73, 3-(6′-((5-ethoxypyridin-2-yl)ethynyl)-1′H-spiro[cyclopropane-1,4′-isoquinolin]-2′(3′H)-yl)cyclobutanecarboxylic acid] | > 1000 nM | 50 to 100% | 1000 to 10000 nM | > 1000 nM | – | – |
| O=C(O)C1CC(N2Cc3ccc(C#Cc4ccc(OC(F)(F)F)c(F)c4)cc3C3(CC3)C2)C1 (stereo not shown) [Compound 71, 3-(6′-((3-fluoro-4-(trifluoromethoxy)phenyl)ethynyl)-1′H-spiro[cyclopropane-1,4′-isoquinolin]-2′(3′H)-yl)cyclobutanecarboxylic acid] | > 1000 nM | 50 to 100% | 10 to 100 nM | > 1000 nM | – | – |
| O=C(O)CCCN1Cc2ccc(OCc3ccc(Cl)cc3)cc2C2(CC2)C1 [Compound 16, 4-(6′-((4-Chlorobenzyl)oxy)-1′H-spiro[cyclopropane-1,4′-isoquinolin]-2′(3′H)-yl)butanoic acid] | > 1000 nM | < 50% | 100 to 1000 nM | – | 100 to 1000 nM | – |
| O=C(O)CCCN1Cc2ccc(C#Cc3ccc4c(c3)OCO4)cc2C2(CC2)C1 [Compound 56, 4-(6′-(benzo[d][1,3]dioxol-5-ylethynyl)-1′H-spiro[cyclopropane-1,4′-isoquinolin]-2′(3′H)-yl)butanoic acid] | > 1000 nM | 50 to 100% | 1000 to 10000 nM | > 1000 nM | – | – |
